Among the data in patent US20240352012A1, “PAN-CASPASE INHIBITORS” (GEORGE MASON UNIVERSITY, priority 2023, published 2024) are inhibition and IC50 values, retold here.

The target in assay [1] is T1, Caspase 3 (Homo sapiens, UniProt P42574).
T1 sequence (P42574 29-175 limits assumed): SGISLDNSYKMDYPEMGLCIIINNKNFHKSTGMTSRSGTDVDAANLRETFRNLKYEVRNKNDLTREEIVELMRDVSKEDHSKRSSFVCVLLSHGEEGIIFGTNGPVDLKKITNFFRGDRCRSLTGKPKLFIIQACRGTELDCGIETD
T1 sequence (P42574 176-277 limits assumed): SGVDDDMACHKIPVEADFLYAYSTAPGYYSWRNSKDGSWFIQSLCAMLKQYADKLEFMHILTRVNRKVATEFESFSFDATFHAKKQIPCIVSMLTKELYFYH
Experimental: (§1) Caspase 3 screening assays were performed similar to the assays described by Okun et al. [61]. […] The direct fluorometric enzyme assay was performed in a 96 well plate which was read in a temperature-controlled plate reader equipped with a 400-nm excitation filter and 505-nm emission filter. The fluorescence was read every one minute for 60 minutes.
(§2) A volume of 1 μL of DMSO solution was added to 24 μL H2O to produce a final volume of 25 μL/well in a 96 well plate. A volume of 2.5 μL of the Active caspase 3 was added. 2) A positive inhibition control was prepared by adding 1 μL of the caspase 3 Inhibitor (Z-DEVD-FMK, provided in the kit) instead of the tested compounds. 3) The other positive inhibition control was prepared by adding 1 μL of the caspase 3/7 Inhibitor (Compound C2, purchased from ApexBio company A1925) instead of the tested compounds. 4) A negative inhibition control was prepared using pure DMSO without the inhibitor. A volume of 1 μL of pure DMSO to 24 μL H2O to a final volume of 25 μL/well. 5) Master Mix was prepared for each assay containing the follows: a. 22.5 μL 2× Reaction Buffer (containing 10 mM DTT). b. 2.5 μL of the 1 mM Ac-DEVD-AFC substrate (50 μM final concentration). 6) Master Mix was mixed well then 22.5 μL of the Master Mix was added quickly to each well to start the reaction. 7) Samples were read in Gemini EM fluorescence Microplate reader with a 400 nm excitation wavelength and 505 nm emission wavelength every 1 minute for duration of 1 hour at 37° C. 8) Data was exported in an Excel spread sheet format and processed to determine the % inhibition compared to the controls in each plate. The IC50 was calculated using Graphpad PRISM 7 software.
(§3) All designed compounds were screened at a fixed concentration of 10 PM.

A further assay has as its target T2, Caspase 1 (Homo sapiens, UniProt P29466).
T2 construct: purchased Raybiotech Company 68FL-Casp1-S200
T2 sequence (P29466 120-297 limits assumed): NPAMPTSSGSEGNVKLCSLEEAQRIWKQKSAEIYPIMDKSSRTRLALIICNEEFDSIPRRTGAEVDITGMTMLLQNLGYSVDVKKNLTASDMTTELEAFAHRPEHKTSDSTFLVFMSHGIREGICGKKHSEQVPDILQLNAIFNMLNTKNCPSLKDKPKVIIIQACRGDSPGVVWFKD
T2 sequence (P29466 317-404 limits assumed): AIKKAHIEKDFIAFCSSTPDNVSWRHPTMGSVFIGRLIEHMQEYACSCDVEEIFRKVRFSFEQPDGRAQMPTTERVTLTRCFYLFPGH
Briefly: Caspase 1 inhibitor screening and IC50 assay (direct fluorometric enzyme assay). Type of assay: biochemical. The conditions noted are these: calculated by Graphpad PRISM 7; read-out: IC50 (nM) against Caspase 1.

For assay [2], the target named is T1, Caspase 3. Briefly: biochemical.
Experimental: as §1, §2, §3
A further assay addresses T3, Caspase 7 (Homo sapiens, UniProt P55210).
T3 sequence (P55210 24-198 limits assumed): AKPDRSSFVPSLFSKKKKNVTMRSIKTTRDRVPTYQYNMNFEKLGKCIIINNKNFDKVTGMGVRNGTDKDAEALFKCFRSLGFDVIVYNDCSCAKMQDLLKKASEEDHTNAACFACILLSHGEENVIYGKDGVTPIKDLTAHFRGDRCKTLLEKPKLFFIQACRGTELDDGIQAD
T3 sequence (P55210 207-303 limits assumed): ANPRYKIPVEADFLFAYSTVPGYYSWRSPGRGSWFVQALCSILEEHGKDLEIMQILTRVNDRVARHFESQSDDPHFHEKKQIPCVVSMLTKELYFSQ
Nature of the assay: biochemical.

By inhibition is commonly meant the change of the read-out against control, counted positive when it falls. The IC50 is the concentration needed to halve the response being measured.

Experimental for Caspase 1: Caspase 3 screening assays were performed similar to the assays described by Okun et al. [61]. The caspase 3 inhibitor drug screening kits were purchases from Raybiotech Company (Caspase 3: Item number is 68SR-Casp3S100), (Caspase 7: Item number is 68SR-Casp7-S100), and (Caspase 1: Item number is 68FL-Casp1-S200). The direct fluorometric enzyme assay was performed in a 96 well plate which was read in a temperature-controlled plate reader equipped with a 400-nm excitation filter and 505-nm emission filter. The fluorescence was read every one minute for 60 minutes.

In turn, `Cc1cc(N2C(=O)c3c(C)nc4ccc(F)cc4c3C2=O)c2ccccc2n1` [Compound F4, 8-fluoro-4-methyl-2-(2-methylquinolin-4-yl)-1H,2H,3H-pyrrolo[3,4-c]quinoline-1,3-dione] gave an inhibition against Caspase 3 [1] of approximately 30%.

On to `Cc1cc(N2C(=O)c3c(C)nc4ccccc4c3C2=O)c2ccccc2n1` [Compound H4, 4-methyl-2-(2-methylquinolin-4-yl)-1H,2H,3H-pyrrolo[3,4-c]quinoline-1,3-dione], for which the inhibition on Caspase 3 [1] is approximately 30%.

At Caspase 3 [1], `Cc1nc2ccccc2c2c1C(=O)N(c1ccc(I)cc1)C2=O` [Compound H11, 2-(4-iodophenyl)-4-methyl-1H,2H,3H-pyrrolo[3,4-c]quinoline-1,3-dione] had an inhibition of approximately 25%.

As to `Cc1ccc(N2C(=O)c3c(C)nc4ccccc4c3C2=O)cc1` [Compound H13, 4-methyl-2-(4-methylphenyl)-1H,2H,3H-pyrrolo[3,4-c]quinoline-1,3-dione], at Caspase 3 [1], the inhibition is approximately 25%.

As to `Cc1cc(N2C(=O)c3c(C)nc4ccc(S(=O)(=O)N5CCOCC5)cc4c3C2=O)c2ccccc2n1` [MO4, 4-methyl-2-(2-methylquinolin-4-yl)-8-(morpholine-4-sulfonyl)-1H,2H,3H-pyrrolo[3,4c]quinoline-1,3-dione], the concentration for half-maximal inhibition (IC50) was 178 nM on Caspase 1, 0.742 µM on Caspase 3 [2] and 0.0352 µM against Caspase 7.

Compound `Cc1nc2ccc(S(=O)(=O)N3CCOCC3)cc2c2c1C(=O)N(c1ccc(I)cc1)C2=O` [MO11, 2-(4-iodophenyl)-4-methyl-8-(morpholine-4-sulfonyl)-1H,2H,3H-pyrrolo[3,4-c]quinoline1,3-dione] displayed a 50% inhibitory concentration (IC50) at Caspase 3 [2] of 0.1 to 0.3 µM.

As to `Cc1ccc(N2C(=O)c3c(C)nc4ccc(S(=O)(=O)N5CCOCC5)cc4c3C2=O)cc1` [MO13, 4-methyl-2-(4-methylphenyl)-8-(morpholine-4-sulfonyl)-1H,2H,3H-pyrrolo[3,4-c]quinoline1,3-dione], the results for the IC50 on Caspase 1, against Caspase 3 [2] and against Caspase 7 were 361 nM, 0.164 µM and 0.145 µM, respectively.

Consider `C#Cc1cccc(N2C(=O)c3c(C)nc4ccc(S(=O)(=O)N5CCCCC5)cc4c3C2=O)c1` [PE5, 2-(3-ethynylphenyl)-4-methyl-8-(piperidine-1-sulfonyl)-1H,2H,3H-pyrrolo[3,4-c]quinoline1,3-dione], for which the IC50 at Caspase 1 is 261 nM; against Caspase 3 [2], 0.785 µM; against Caspase 7, 0.408 µM.

On to `Cc1nc2ccc(S(=O)(=O)N3CCCC3)cc2c2c(=O)n(-c3ccccc3)[nH]c(=O)c12` [PY6B, 5-methyl-2-phenyl-9-(pyrrolidine-1-sulfonyl)-1H,2H,3H,4H-pyridazino[4,5-c]quinoline-1,4dione], for which, at Caspase 3 [2], the IC50 was approximately 4 µM.
